ChEMBL document CHEMBL1201862, “PubChem BioAssay data set” (2004)
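These data come from cells grown in 96-well plates and exposed to compound for 48 hours at five concentrations. GI50: concentration for 50% inhibition of growth.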 Activity calls are given as the source filed them. Cut-off read from the data, not from the text of the source: active = GI50 up to about 1.1 µM and inactive = higher.

Tests used:
Test in all cases: inhibition of tumour cell growth, NCI panel, 48 h
SF-268 = tested on: SF-268
SK-MEL-28 = tested on: SK-MEL-28
K562 = tested on: K562
Malme-3M = tested on: Malme-3M
EKVX = tested on: EKVX
OVCAR-3 = tested on: OVCAR-3
CAKI-1 = tested on: CAKI-1
ACHN = tested on: ACHN
UACC-257 = tested on: UACC-257
CCRF-CEM = tested on: CCRF-CEM
HL-60 = tested on: HL-60
UO-31 = tested on: UO-31
OVCAR-4 = tested on: OVCAR-4
NCI-H522 = tested on: NCI-H522
NCI/ADR-RES = tested on: NCI/ADR-RES
MDA-MB-435 = tested on: MDA-MB-435
SK-MEL-5 = tested on: SK-MEL-5
HOP-92 = tested on: HOP-92
HCT-15 = tested on: HCT-15
SF-295 = tested on: SF-295
NCI-H23 = tested on: NCI-H23
KM12 = tested on: KM12
RPMI-8226 = tested on: RPMI-8226
U-251 = tested on: U-251
HT-29 = tested on: HT-29
LOX IMVI = tested on: LOX IMVI
BT-549 = tested on: BT-549
SR = tested on: SR
MDA-N = tested on: MDA-N
MOLT-4 = tested on: MOLT-4
HCC 2998 = tested on: HCC 2998
MCF7 = tested on: MCF7
OVCAR-5 = tested on: OVCAR-5
DU-145 = tested on: DU-145
SW-620 = tested on: SW-620
Hs-578T = tested on: Hs-578T
A498 = tested on: A498
IGROV-1 = tested on: IGROV-1
UACC-62 = tested on: UACC-62
HCT-116 = tested on: HCT-116
A549 = tested on: A549
NCI-H460 = tested on: NCI-H460
SNB-19 = tested on: SNB-19
COLO 205 = tested on: COLO 205
SN12C = tested on: SN12C
M14 = tested on: M14
RXF 393 = tested on: RXF 393
786-0 = tested on: 786-0
PC-3 = tested on: PC-3
MDA-MB-231 = tested on: MDA-MB-231
SF-539 = tested on: SF-539
HOP-62 = tested on: HOP-62
SK-OV-3 = tested on: SK-OV-3
TK-10 = tested on: TK-10
OVCAR-8 = tested on: OVCAR-8
SK-MEL-2 = tested on: SK-MEL-2
SNB-75 = tested on: SNB-75
NCI-H226 = tested on: NCI-H226

For `COC1(c2ccc(Cl)cc2)SC=C(C)n2c1noc2=O` (stereo not drawn), the GI50 (SF-268) was > 100 µM (inactive), the GI50 (SK-MEL-28) was > 100 µM (inactive) and the GI50 (K562) was > 100 µM (inactive). The GI50 (Malme-3M) was > 100 µM (inactive), the GI50 (EKVX) was > 100 µM (inactive) and the GI50 (OVCAR-3) was 29.7 µM (inactive). The GI50 (CAKI-1) was > 100 µM (inactive), the GI50 (ACHN) was > 100 µM (inactive) and the GI50 (UACC-257) was > 100 µM (inactive). For the same compound, the GI50 (CCRF-CEM) was > 100 µM (inactive), the GI50 (HL-60) was > 100 µM (inactive) and the GI50 (UO-31) was > 100 µM (inactive). For the same compound, the GI50 (OVCAR-4) was 63.8 µM (inactive), the GI50 (NCI-H522) was 89.5 µM (inactive) and the GI50 (NCI/ADR-RES) was 10.5 µM (inactive). For the same compound, the GI50 (MDA-MB-435) was > 100 µM (inactive), the GI50 (SK-MEL-5) was > 100 µM (inactive) and the GI50 (HOP-92) was > 100 µM (inactive). For the same compound, the GI50 (HCT-15) was greater than 100 µM, the GI50 (SF-295) was > 100 µM (inactive) and the GI50 (NCI-H23) was > 100 µM (inactive). The GI50 (KM12) was 86.9 µM (inactive), the GI50 (RPMI-8226) was > 100 µM (inactive) and the GI50 (U-251) was > 100 µM (inactive). The GI50 (HT-29) was 33.8 µM (inactive), the GI50 (LOX IMVI) was > 100 µM (inactive) and the GI50 (BT-549) was > 100 µM (inactive). The GI50 (SR) was > 100 µM (inactive), the GI50 (MDA-N) was > 100 µM (inactive) and the GI50 (MOLT-4) was > 100 µM (inactive). The GI50 (HCC 2998) was > 100 µM (inactive), the GI50 (MCF7) was > 100 µM (inactive) and the GI50 (OVCAR-5) was > 100 µM (inactive). For the same compound, the GI50 (DU-145) was > 100 µM (inactive), the GI50 (SW-620) was > 100 µM (inactive) and the GI50 (Hs-578T) was > 100 µM (inactive). The GI50 (A498) was > 100 µM (inactive), the GI50 (IGROV-1) was > 100 µM (inactive) and the GI50 (UACC-62) was > 100 µM (inactive). The GI50 (HCT-116) was 78.7 µM (inactive), the GI50 (A549) was > 100 µM (inactive) and the GI50 (NCI-H460) was > 100 µM (inactive). For the same compound, the GI50 (SNB-19) was > 100 µM (inactive), the GI50 (COLO 205) was > 100 µM (inactive) and the GI50 (SN12C) was > 100 µM (inactive). For the same compound, the GI50 (M14) was > 100 µM (inactive), the GI50 (RXF 393) was > 100 µM (inactive) and the GI50 (786-0) was > 100 µM (inactive). The GI50 (PC-3) was > 100 µM (inactive).
`CSc1nc(Cl)c2c(n1)Sc1nc3cc4c(cc3n1C2O)OCO4` (stereo not drawn) was tested, and the GI50 (SF-268) was 0.637 µM (active), the GI50 (SK-MEL-28) was 0.895 µM (active) and the GI50 (MDA-MB-231) was 0.391 µM (active). For the same compound, the GI50 (SF-539) was 0.126 µM (active), the GI50 (K562) was 0.29 µM (active) and the GI50 (Malme-3M) was 0.516 µM (active). For the same compound, the GI50 (EKVX) was 5.75 µM (inactive), the GI50 (OVCAR-3) was 0.982 µM (active) and the GI50 (HOP-62) was 0.701 µM (active). The GI50 (CAKI-1) was 2.95 µM (inactive), the GI50 (ACHN) was 0.946 µM (active) and the GI50 (UACC-257) was > 58.7 µM (inactive). The GI50 (CCRF-CEM) was 0.269 µM (active), the GI50 (UO-31) was 0.46 µM (active) and the GI50 (SK-OV-3) was 1.72 µM (inactive). For the same compound, the GI50 (OVCAR-4) was > 100 µM (inactive), the GI50 (NCI-H522) was 0.26 µM (active) and the GI50 (NCI/ADR-RES) was 0.385 µM (active). The GI50 (TK-10) was 1.65 µM (inactive), the GI50 (MDA-MB-435) was 0.232 µM (active) and the GI50 (SK-MEL-5) was 0.526 µM (active). For the same compound, the GI50 (HCT-15) was 0.31 µM, the GI50 (OVCAR-8) was 0.575 µM (active) and the GI50 (SK-MEL-2) was 0.726 µM (active). For the same compound, the GI50 (SF-295) was 0.818 µM (active), the GI50 (NCI-H23) was 0.891 µM (active) and the GI50 (KM12) was 0.194 µM (active). The GI50 (RPMI-8226) was 0.385 µM (active), the GI50 (U-251) was 0.791 µM (active) and the GI50 (HT-29) was 0.254 µM (active). The GI50 (LOX IMVI) was 0.206 µM (active), the GI50 (SNB-75) was 3.75 µM (inactive) and the GI50 (BT-549) was 0.452 µM (active). For the same compound, the GI50 (MDA-N) was 0.237 µM (active), the GI50 (HCC 2998) was 1.66 µM (inactive) and the GI50 (MCF7) was 0.338 µM (active). The GI50 (OVCAR-5) was 0.92 µM (active), the GI50 (DU-145) was 0.318 µM (active) and the GI50 (SW-620) was 0.33 µM (active). The GI50 (Hs-578T) was 1.05 µM (active), the GI50 (A498) was 3.44 µM (inactive) and the GI50 (IGROV-1) was 0.392 µM (active). For the same compound, the GI50 (NCI-H226) was 1.1 µM (active), the GI50 (UACC-62) was 0.43 µM (active) and the GI50 (HCT-116) was 0.0863 µM (active). For the same compound, the GI50 (A549) was 0.617 µM (active), the GI50 (NCI-H460) was 0.364 µM (active) and the GI50 (SNB-19) was 1.57 µM (inactive). For the same compound, the GI50 (COLO 205) was 0.247 µM (active), the GI50 (SN12C) was 0.578 µM (active) and the GI50 (M14) was 0.333 µM (active). The GI50 (RXF 393) was 1.96 µM (inactive), the GI50 (786-0) was 0.321 µM (active) and the GI50 (PC-3) was 0.306 µM (active).
